Test results from ChEMBL document CHEMBL1141332, “Cytotoxic metabolites from an Indonesian sponge Lendenfeldia sp” (J Nat Prod, 2007).

Legend:
Format in all cases: functional
HL-60 = assay: Cytotoxicity against human HL60 cells; conditions: Homo sapiens, HL-60
MOLT-4 = assay: Cytotoxicity against human MOLT4 cells
RPMI-8226 = assay: Cytotoxicity against human RPMI8226 cells
EKVX = assay: Cytotoxicity against human EKVX cells
HOP-62 = assay: Cytotoxicity against human HOP62 cells
NCI-H226 = assay: Cytotoxicity against human NCI-H226 cells
NCI-H23 = assay: Cytotoxicity against human NCI-H23 cells
NCI-H322M = assay: Cytotoxicity against human NCI-H322M cells
NCI-H460 = assay: Cytotoxicity against human NCI-H460 cells
NCI-H522 = assay: Cytotoxicity against human NCI-H522 cells
LOX IMVI = assay: Cytotoxicity against human LOX IMVI cells
COLO 205 = assay: Cytotoxicity against human COLO205 cells
HCC 2998 = assay: Cytotoxicity against human HCC2998 cells
HCT-116 = assay: Cytotoxicity against human HCT116 cells
HCT-15 = assay: Cytotoxicity against human HCT15 cells
HT-29 = assay: Cytotoxicity against human HT29 cells
KM12 = assay: Cytotoxicity against human KM12 cells
SF-268 = assay: Cytotoxicity against human SF268 cells
SF-295 = assay: Cytotoxicity against human SF295 cells
SF-539 = assay: Cytotoxicity against human SF539 cells
SNB-19 = assay: Cytotoxicity against human SNB19 cells; conditions: read-out: Log LC50 (the source's name) (converted)
SNB-75 = assay: Cytotoxicity against human SNB75 cells
U-251 = assay: Cytotoxicity against human U251cells
Malme-3M = assay: Cytotoxicity against human MALME-3M cells
M14 = assay: Cytotoxicity against human M14 cells
SK-MEL-2 = assay: Cytotoxicity against human SK-MEL-2 cells
SK-MEL-28 = assay: Cytotoxicity against human SK-MEL-28 cells
SK-MEL-5 = assay: Cytotoxicity against human SK-MEL-5 cells
UACC-257 = assay: Cytotoxicity against human UACC257 cells
UACC-62 = assay: Cytotoxicity against human UACC62 cells
OVCAR-5 = assay: Cytotoxicity against human OVCAR5 cells
OVCAR-8 = assay: Cytotoxicity against human OVCAR8 cells
SK-OV-3 = assay: Cytotoxicity against human SK-OV-3 cells
786-0 = assay: Cytotoxicity against human 786-0 cells
A498 = assay: Cytotoxicity against human A498 cells
ACHN = assay: Cytotoxicity against human ACHN cells
SN12C = assay: Cytotoxicity against human SN12C cells
UO-31 = assay: Cytotoxicity against human UO31 cells
PC-3 = assay: Cytotoxicity against human PC3 cells
DU-145 = assay: Cytotoxicity against human DU145 cells
MCF7 = assay: Cytotoxicity against human MCF7 cells
[1] = Cytotoxicity against human HS578T cells; conditions: Hs-578T
MDA-MB-435 = assay: Cytotoxicity against human MDA-MB-435 cells
BT-549 = assay: Cytotoxicity against human BT549 cells
T47D = assay: Cytotoxicity against human T47D cells
[2] = read-out: Log LC50 (the source's name) (converted)

For CC1OC(=O)[C@H]2[C@H]1[C@@H](O)C[C@H]1[C@]3(C)CC[C@H]4C(C)(C)CCC[C@]4(C)[C@H]3C[C@@H](O)[C@]21C (stereo partly drawn), the GI50 (HL-60) was 11.7 µM, the CC50 (HL-60; [2]) was > 100 µM and the TGI (HL-60; read-out: Log TGI (converted)) was 36.3 µM. For the same molecule, the GI50 (MOLT-4) was 4.79 µM, the CC50 (MOLT-4; [2]) was > 100 µM and the TGI (MOLT-4; read-out: Log TGI (converted)) was 20.9 µM. The GI50 (RPMI-8226) was 16.2 µM, the CC50 (RPMI-8226; [2]) was > 100 µM and the TGI (RPMI-8226; read-out: Log TGI (converted)) was 51.3 µM. It also gave a GI50 (EKVX) of 23.4 µM, a CC50 (EKVX; [2]) of 89.1 µM and a TGI (EKVX; read-out: Log TGI (converted)) of 45.7 µM. For the same molecule, the GI50 (HOP-62) was 15.1 µM, the CC50 (HOP-62; [2]) was 55 µM and the TGI (HOP-62; read-out: Log TGI (converted)) was 28.8 µM. The GI50 (NCI-H226) was 20 µM, the CC50 (NCI-H226; [2]) was 87.1 µM and the TGI (NCI-H226; read-out: Log TGI (converted)) was 41.7 µM. The GI50 (NCI-H23) was 20.4 µM, the CC50 (NCI-H23; [2]) was 67.6 µM and the TGI (NCI-H23; read-out: Log TGI (converted)) was 37.2 µM. The GI50 (NCI-H322M) was 31.6 µM, the CC50 (NCI-H322M; [2]) was > 100 µM and the TGI (NCI-H322M; read-out: Log TGI (converted)) was 93.3 µM. It also gave a GI50 (NCI-H460) of 20.9 µM, a CC50 (NCI-H460; [2]) of 89.1 µM and a TGI (NCI-H460; read-out: Log TGI (converted)) of 42.7 µM. The GI50 (NCI-H522) was 19.5 µM, the CC50 (NCI-H522; [2]) was 77.6 µM and the TGI (NCI-H522; read-out: Log TGI (converted)) was 38.9 µM. For the same molecule, the GI50 (LOX IMVI) was 17.4 µM, the CC50 (LOX IMVI; [2]) was 56.2 µM and the TGI (LOX IMVI; read-out: Log TGI (converted)) was 30.9 µM. It also gave a GI50 (COLO 205) of 15.8 µM, a CC50 (COLO 205; [2]) of 66.1 µM and a TGI (COLO 205; read-out: Log TGI (converted)) of 32.4 µM. The GI50 (HCC 2998) was 15.5 µM, the CC50 (HCC 2998; [2]) was 56.2 µM and the TGI (HCC 2998; read-out: Log TGI (converted)) was 29.5 µM. The GI50 (HCT-116) was 11.2 µM, the CC50 (HCT-116; [2]) was 47.9 µM and the TGI (HCT-116; read-out: Log TGI (converted)) was 23.4 µM. The GI50 (HCT-15) was 16.2 µM, the CC50 (HCT-15; [2]) was 60.3 µM and the TGI (HCT-15; read-out: Log TGI (converted)) was 31.6 µM. For the same molecule, the GI50 (HT-29) was 17.4 µM, the CC50 (HT-29; [2]) was 83.2 µM and the TGI (HT-29; read-out: Log TGI (converted)) was 38 µM. The GI50 (KM12) was 25.1 µM, the CC50 (KM12; [2]) was > 100 µM and the TGI (KM12; read-out: Log TGI (converted)) was 69.2 µM. The GI50 (SF-268) was 22.4 µM, the CC50 (SF-268; [2]) was > 100 µM and the TGI (SF-268; read-out: Log TGI (converted)) was 49 µM. The GI50 (SF-295) was 19.5 µM, the CC50 (SF-295; [2]) was > 100 µM and the TGI (SF-295; read-out: Log TGI (converted)) was 50.1 µM. The GI50 (SF-539) was 19.1 µM, the CC50 (SF-539; [2]) was 67.6 µM and the TGI (SF-539; read-out: Log TGI (converted)) was 36.3 µM. For the same molecule, the CC50 (SNB-19) was 17 µM, the GI50 (SNB-75) was 20 µM and the CC50 (SNB-75; [2]) was > 100 µM. The TGI (SNB-75; read-out: Log TGI (converted)) was 47.9 µM, the GI50 (U-251) was 17 µM and the CC50 (U-251; [2]) was 61.7 µM. It also gave a TGI (U-251; read-out: Log TGI (converted)) of 32.4 µM, a GI50 (Malme-3M) of 26.9 µM and a CC50 (Malme-3M; [2]) of 91.2 µM. The TGI (Malme-3M; read-out: Log TGI (converted)) was 50.1 µM, the GI50 (M14) was 19.1 µM and the CC50 (M14; [2]) was 69.2 µM. The TGI (M14; read-out: Log TGI (converted)) was 36.3 µM, the GI50 (SK-MEL-2) was 25.1 µM and the CC50 (SK-MEL-2; [2]) was > 100 µM. It also gave a TGI (SK-MEL-2; read-out: Log TGI (converted)) of 51.3 µM, a GI50 (SK-MEL-28) of 20 µM and a CC50 (SK-MEL-28; [2]) of 66.1 µM. For the same molecule, the TGI (SK-MEL-28; read-out: Log TGI (converted)) was 36.3 µM, the GI50 (SK-MEL-5) was 13.5 µM and the CC50 (SK-MEL-5; [2]) was 52.5 µM. For the same molecule, the TGI (SK-MEL-5; read-out: Log TGI (converted)) was 26.3 µM, the GI50 (UACC-257) was 28.2 µM and the CC50 (UACC-257; [2]) was > 100 µM. For the same molecule, the TGI (UACC-257; read-out: Log TGI (converted)) was 83.2 µM, the GI50 (UACC-62) was 19.5 µM and the CC50 (UACC-62; [2]) was 97.7 µM. The TGI (UACC-62; read-out: Log TGI (converted)) was 43.7 µM, the GI50 (OVCAR-5) was 20.9 µM and the CC50 (OVCAR-5; [2]) was 75.9 µM. For the same molecule, the TGI (OVCAR-5; read-out: Log TGI (converted)) was 39.8 µM, the GI50 (OVCAR-8) was 25.1 µM and the CC50 (OVCAR-8; [2]) was > 100 µM. The TGI (OVCAR-8; read-out: Log TGI (converted)) was 63.1 µM, the GI50 (SK-OV-3) was 38.9 µM and the CC50 (SK-OV-3; [2]) was > 100 µM. The TGI (SK-OV-3; read-out: Log TGI (converted)) was > 100 µM, the GI50 (786-0) was 15.8 µM and the CC50 (786-0; [2]) was 56.2 µM. It also gave a TGI (786-0; read-out: Log TGI (converted)) of 30.2 µM, a GI50 (A498) of 18.6 µM and an LC50 (A498) of 72.4 µM. It also gave a TGI (A498; read-out: Log TGI (converted)) of 37.2 µM, a GI50 (ACHN) of 18.2 µM and an LC50 (ACHN) of 56.2 µM. The TGI (ACHN; read-out: Log TGI (converted)) was 31.6 µM, the GI50 (SN12C) was 17.4 µM and the LC50 (SN12C) was > 100 µM. The TGI (SN12C; read-out: Log TGI (converted)) was 46.8 µM, the GI50 (UO-31) was 20.4 µM and the LC50 (UO-31) was 75.9 µM. For the same molecule, the TGI (UO-31; read-out: Log TGI (converted)) was 39.8 µM, the GI50 (PC-3) was 17 µM and the LC50 (PC-3) was > 100 µM. It also gave a TGI (PC-3; read-out: Log TGI (converted)) of 55 µM, a GI50 (DU-145) of 17 µM and an LC50 (DU-145) of 72.4 µM. For the same molecule, the TGI (DU-145; read-out: Log TGI (converted)) was 34.7 µM, the GI50 (MCF7) was 34.7 µM and the LC50 (MCF7) was > 100 µM. For the same molecule, the TGI (MCF7; read-out: Log TGI (converted)) was > 100 µM, the GI50 [1] was 19.1 µM and the LC50 [1] was > 100 µM. For the same molecule, the TGI ([1]; read-out: Log TGI (converted)) was 53.7 µM, the GI50 (MDA-MB-435) was 19.1 µM and the LC50 (MDA-MB-435) was > 100 µM. For the same molecule, the TGI (MDA-MB-435; read-out: Log TGI (converted)) was 51.3 µM, the GI50 (BT-549) was 17 µM and the LC50 (BT-549) was 64.6 µM. For the same molecule, the TGI (BT-549; read-out: Log TGI (converted)) was 33.1 µM, the GI50 (T47D) was 24.5 µM and the LC50 (T47D) was > 100 µM. It also gave a TGI (T47D; read-out: Log TGI (converted)) of 63.1 µM.
